Literature values as cited in patent publication US20100278915A1, “COMPOSITIONS COMPRISING AN ANTIHISTAMINE, A[…] DE[…] EXTENDED RELEASE FORMULATIONS” (Atley Pharmaceuticals, Inc., priority 2009, published 2010).
Where a name gives a salt, the structure may show the parent alone.

Experiments:
[1] = in vivo
[2] = after a single oral dose
[3] = within 24 hours of dosing

In the case of `CN(C)CCC(c1ccc(Cl)cc1)c1ccccn1` (stereo not shown) [Chlorpheniramine, Chlorpheniramine maleate], the “monodesmethyl and didesmethyl compounds excreted in the urine” value [1] is given as “up to 26%” and the “renal elimination, share of total excretion” value [1] is given as “approximately 50%”.

In the case of `COc1ccc2c3c1O[C@H]1C(=O)CC[C@H]4[C@@H](C2)N(C)CC[C@]314` [Hydrocodone, hydrocodone], the “share of total excretion in the first 24 hours” value [2] is given as “About 70%”.

In the case of `CN[C@@H](C)[C@@H](O)c1ccccc1` [Pseudoephedrine, pseudoephedrine], the “dose excreted unchanged in urine” value [3] is given as “up to 90%”.
